In the supplement of paper PMC10307832:

Legend:
Assay in all cases: relative viability (nuclei count vs DMSO), 5 days (fraction); higher = more cells survive
4EGI-1 + Navitoclax = compound: O=C(O)C(Cc1ccccc1[N+](=O)[O-])=NNc1nc(-c2ccc(Cl)c(Cl)c2)cs1 (mixture of isomers) [4EGI-1] + CC1(C)CCC(c2ccc(Cl)cc2)=C(CN2CCN(c3ccc(C(=O)NS(=O)(=O)c4ccc(N[C@H](CCN5CCOCC5)CSc5ccccc5)c(S(=O)(=O)C(F)(F)F)c4)cc3)CC2)C1 [Navitoclax] (partner 0.5 µM)
How it was run: (§1)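 Lung cancer cell lines in 1536-well plates got either a single drug or a fixed anchor-drug dose together with five library-drug doses (not always all listed) in √10 steps, by pin tool, on the day after seeding. Nuclei were counted after 5 days, and relative viability is the treated-to-vehicle ratio of nuclei counts. Values are medians of duplicate plates.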

XMD8-85 + Decitabine = compound: CN1CCN(CC1)C2=CC(=C(C=C2)NC3=NC=C4C(=N3)N(C5=CC=CC=C5C(=O)N4C)C)OC [XMD8-85] + Nc1ncn([C@H]2C[C@H](O)[C@@H](CO)O2)c(=O)n1 [Decitabine] (partner 2 µM)
How it was run: as §1

4EGI-1 + Decitabine = compound: O=C(O)C(Cc1ccccc1[N+](=O)[O-])=NNc1nc(-c2ccc(Cl)c(Cl)c2)cs1 (mixture of isomers) [4EGI-1] + Nc1ncn([C@H]2C[C@H](O)[C@@H](CO)O2)c(=O)n1 [Decitabine] (partner 2 µM)
How it was run: as §1

XMD8-85 + Foretinib = compound: CN1CCN(CC1)C2=CC(=C(C=C2)NC3=NC=C4C(=N3)N(C5=CC=CC=C5C(=O)N4C)C)OC [XMD8-85] + COc1cc2c(Oc3ccc(NC(=O)C4(C(=O)Nc5ccc(F)cc5)CC4)cc3F)ccnc2cc1OCCCN1CCOCC1 [Foretinib] (partner 0.25 µM)
How it was run: as §1

| Cell Line | relative viability (4EGI-1 + Navitoclax; first compound 0.5 µM) | relative viability (4EGI-1 + Navitoclax; first compound 5 µM) | relative viability (4EGI-1 + Navitoclax; first compound 15.81 µM) | relative viability (4EGI-1 + Navitoclax; first compound 50 µM) | relative viability (XMD8-85 + Decitabine; first compound 0.08 µM) | relative viability (XMD8-85 + Decitabine; first compound 0.253 µM) | relative viability (XMD8-85 + Decitabine; first compound 0.8 µM) | relative viability (XMD8-85 + Decitabine; first compound 2.53 µM) | relative viability (XMD8-85 + Decitabine; first compound 8 µM) | relative viability (4EGI-1 + Decitabine; first compound 0.5 µM) | relative viability (4EGI-1 + Decitabine; first compound 1.581 µM) | relative viability (4EGI-1 + Decitabine; first compound 5 µM) | relative viability (4EGI-1 + Decitabine; first compound 15.81 µM) | relative viability (4EGI-1 + Decitabine; first compound 50 µM) | relative viability (XMD8-85 + Foretinib; first compound 0.08 µM) | relative viability (XMD8-85 + Foretinib; first compound 0.253 µM) | relative viability (XMD8-85 + Foretinib; first compound 0.8 µM) | relative viability (XMD8-85 + Foretinib; first compound 2.53 µM) | relative viability (XMD8-85 + Foretinib; first compound 8 µM) | relative viability (4EGI-1 + Navitoclax; first compound 1.581 µM) |
| --- | --- | --- | --- | --- | --- | --- | --- | --- | --- | --- | --- | --- | --- | --- | --- | --- | --- | --- | --- | --- |
| NCI-H838 | 1.24 | 1.26 | 1.04 | 0.218 | 0.572 | 0.46 | 0.476 | 0.449 | 0.354 | 0.469 | 0.509 | 0.389 | 0.312 | 0.238 | 0.941 | 1 | 1.08 | 0.91 | 0.569 | – |
| COR-L 105 | 0.618 | 1.02 | 0.597 | 0.43 | – | 0.731 | 0.7 | 0.537 | 0.466 | 0.681 | 0.558 | 0.587 | 0.472 | 0.523 | 1.21 | 1.14 | 1.08 | 0.672 | 0.387 | 0.668 |
| HCC-366 | 1.18 | 1.14 | 1.15 | 1.01 | 0.342 | 0.302 | 0.375 | 0.511 | 0.393 | 0.364 | 0.29 | 0.549 | 0.256 | 0.0833 | 0.991 | 1.04 | 0.988 | 0.937 | 0.748 | 0.954 |
| NCI-H650 | – | – | – | – | 0.336 | 0.3 | 0.354 | 0.309 | 0.324 | 0.352 | – | 0.34 | 0.332 | 0.322 | 1.05 | 0.997 | 0.947 | 1.04 | 0.685 | – |
| NCI-H1299 | 1.1 | 1.04 | 0.986 | 1.08 | – | – | – | – | – | – | – | – | – | – | 1.13 | 1.1 | 1.1 | 1.11 | 0.86 | 1.04 |
| LCLC-97TM1 | 0.57 | 0.408 | 0.374 | 0.267 | 0.222 | 0.206 | 0.204 | 0.284 | 0.195 | 0.278 | – | 0.23 | 0.248 | 0.124 | 0.934 | 0.95 | 0.959 | 1.01 | 1 | – |
| NCI-H1666 | 1.14 | 1.31 | 0.833 | 0.248 | 0.703 | 0.724 | – | 0.692 | 0.68 | 0.749 | 0.609 | 0.758 | 0.564 | 0.495 | 0.991 | 0.988 | 0.963 | 0.893 | 0.886 | 1.05 |
| NCI-H1993 | 0.952 | 0.77 | 0.7 | 0.483 | 0.543 | 0.555 | 0.585 | 0.561 | 0.57 | 0.74 | 0.548 | 0.588 | 0.619 | 0.462 | 0.742 | 0.894 | 0.806 | 0.706 | 0.61 | 0.895 |
| BEN | 0.0672 | 0.0652 | 0.0675 | 0.0686 | 0.761 | 0.671 | 0.757 | 0.66 | 0.483 | 0.758 | 0.635 | 0.78 | 0.578 | 0.522 | 0.729 | 0.543 | 0.509 | 0.438 | 0.304 | 0.0661 |
| HCC-827 | 1.04 | 0.938 | – | 0.789 | 0.389 | 0.356 | 0.316 | 0.374 | 0.369 | 0.263 | 0.31 | 0.344 | – | 0.219 | 1.03 | 1.1 | 0.948 | 1.13 | 1.11 | 0.936 |
| HOP-62 | 1.11 | 1.02 | 0.995 | 1.06 | 0.235 | 0.199 | 0.186 | 0.228 | 0.236 | 0.272 | 0.199 | 0.215 | 0.202 | 0.183 | 1.14 | 1.13 | 0.971 | 0.946 | 0.466 | – |
| NCI-H1355 | 1.07 | 0.841 | 0.644 | 0.677 | 0.359 | 0.308 | 0.345 | 0.355 | 0.329 | 0.364 | 0.36 | 0.358 | 0.328 | 0.336 | 1.02 | 1.01 | 0.977 | 0.878 | 0.811 | 0.95 |
| A549 | 1.29 | 1.24 | 1.17 | 0.217 | 0.296 | 0.252 | 0.237 | 0.369 | 0.384 | 0.345 | 0.377 | 0.259 | 0.177 | 0.0347 | 1.02 | 0.869 | 1.11 | 1.05 | 0.913 | 1.2 |
| A-427 | 0.998 | 0.815 | 0.687 | 0.928 | 0.601 | 0.596 | 0.546 | 0.573 | 0.539 | 0.575 | – | 0.592 | 0.513 | 0.336 | 1.22 | 1.03 | 1.12 | 0.889 | 0.828 | 0.823 |
| NCI-H358 | – | – | – | – | 0.219 | 0.243 | 0.229 | 0.234 | 0.198 | 0.218 | 0.203 | 0.189 | 0.138 | 0.115 | 0.656 | 0.774 | 0.84 | 0.673 | 0.422 | – |
| NCI-H23 | 1.12 | 0.947 | 0.883 | 0.708 | 0.306 | 0.316 | 0.349 | 0.32 | 0.267 | 0.331 | – | 0.337 | 0.45 | 0.2 | 1.08 | 0.778 | 1.08 | 0.77 | 0.866 | – |
| LXF-289 | 1.01 | 0.983 | 0.915 | 0.784 | 0.409 | 0.371 | 0.369 | 0.423 | 0.352 | 0.436 | 0.346 | 0.391 | 0.359 | 0.287 | 0.887 | 0.997 | 0.993 | 0.977 | 0.812 | 0.933 |
